The values below come from ChEMBL document CHEMBL3102694, “Synthesis of C11-Desmethoxy Soraphen A1α: A natural product analog that inhibits acetyl-CoA carboxylase” (ACS Med Chem Lett, 2013).

The species entered for assay [1] is Mus musculus. As to the kind of experiment: Inhibition of acetyl-CoA carboxylase in mouse SCR1163 cells assessed as reduction in [14C]-acetate incorporation into fatty acid at 0.1 to 1 uM after 4 hrs. It counts as cell-based.
Assay [2] is filed under the species Mus musculus. As to the kind of experiment: Inhibition of acetyl-CoA carboxylase in mouse SCR1693 cells assessed as reduction in [14C]-acetate incorporation into fatty acid at 0.1 to 1 uM after 4 hrs. It counts as cell-based.
Assay [3] is filed under the species Mus musculus. As to the kind of experiment: Cytotoxicity against mouse SCR1163 cells at 1.25 to 10 uM after 24 to 72 hrs by MTT assay. It counts as functional, cell-based.

Each structure is given as a SMILES string. The source made the active and inactive calls. No cut-off for these calls is given here.

With `CO[C@H]1CCCC[C@@H](c2ccccc2)OC(=O)[C@@H](C)[C@@]2(O)O[C@H]([C@@H](C)[C@H](O)[C@H]2OC)[C@@H](C)/C=C/[C@H]1OC`, the inhibition entry in assay [1] and in assay [2] was “Active” in each case.
In the case of `CO[C@@H]1C/C=C/[C@H](C)[C@@H]2O[C@](O)([C@H](C)C(=O)O[C@H](c3ccccc3)CCCC1)[C@H](OC)[C@@H](O)[C@@H]2C`, the result in assay [3] was Active. Also, the inhibition – broadly, the percentage by which the read-out fell short of the control – in assay [1] was 59%; in assay [2] it was 48%.
